Results as given in patent US20230312478A1, “HERBICIDAL COMPOUNDS” (SYNGENTA CROP PROTECTION AG, priority 2020, published 2023).

Key:
Format in all cases: in vivo
Settings in all cases: 250 g/ha, evaluated visually after 13 days, scale 0-5
[1] = system: Echinochloa crus-galli (ECHCG); assay: Herbicidal efficacy, application pre-emergence; set-up: key: 5 = total damage to plant; 0 = no damage to plant
Procedure: (§1) Seeds of a variety of test species [Ipomoea hederacea (IPOHE); Zea mays (ZEAMX); Echinochloa crus-galli (ECHCG); Setaria faberi (SETFA); Abutilon theophrasti (ABUTH); Amaranthus retroflexus (AMARE)] were sown in standard sterilised soil in pots. After cultivation for one day (pre-emergence) or after 8 days cultivation (post-emergence) under controlled conditions in a glasshouse (at 24/16° C., day/night; 14 hours light; 65 % humidity), the plants were sprayed with an aqueous spray solution derived from the formulation of the technical active ingredient in acetone / water (50:50) solution containing 0.5% Tween 20 (polyoxyethelyene sorbitan monolaurate, CAS RN 9005-64-5), subsequently diluted in water, and sprayed to give the stated application rate.
(§2) The test plants were then grown under controlled conditions in a glasshouse (at 24/16° C., day/night; 14 hours light; 65 % humidity) and watered twice daily.
(§3) After 13 days for pre- and post-emergence, the test was evaluated visually for percentage phytotoxicity to the plant (where 5 = total damage to plant; 0 = no damage to plant).

[2] = system: Ipomoea hederacea (IPOHE); assay: Herbicidal efficacy, application pre-emergence; set-up: key: 5 = total damage to plant; 0 = no damage to plant
Procedure: as §1, §2, §3

Setaria faberi (SETFA) [3] = assay: Herbicidal efficacy, application pre-emergence; set-up: key: 5 = total damage to plant; 0 = no damage to plant
Procedure: as §1, §2, §3

[4] = system: Abutilon theophrasti (ABUTH); assay: Herbicidal efficacy, application pre-emergence; set-up: key: 5 = total damage to plant; 0 = no damage to plant
Procedure: as §1, §2, §3

[5] = system: Amaranthus retroflexus (AMARE); assay: Herbicidal efficacy, application pre-emergence; set-up: key: 5 = total damage to plant; 0 = no damage to plant
Procedure: as §1, §2, §3

[6] = system: Echinochloa crus-galli (ECHCG); assay: Herbicidal efficacy, application post-emergence
Procedure: as §1, §2, §3

[7] = system: Ipomoea hederacea (IPOHE); assay: Herbicidal efficacy, application post-emergence
Procedure: as §1, §2, §3

Setaria faberi (SETFA) [8] = assay: Herbicidal efficacy, application post-emergence
Procedure: as §1, §2, §3

Zea mays (ZEAMX) [9] = assay: Herbicidal efficacy, application post-emergence
Procedure: as §1, §2, §3

[10] = system: Amaranthus retroflexus (AMARE); assay: Herbicidal efficacy, application post-emergence
Procedure: as §1, §2, §3

[11] = system: Abutilon theophrasti (ABUTH); assay: Herbicidal efficacy, application post-emergence; set-up: key: 5 = total damage to plant; 0 = no damage to plant
Procedure: as §1, §2, §3

Zea mays (ZEAMX) [12] = assay: Herbicidal efficacy, application pre-emergence
Procedure: as §1, §2, §3

Row | Compound | phytotoxicity to the plant, ECHCG [1] | phytotoxicity to the plant, IPOHE [2] | phytotoxicity to the plant, SETFA (Setaria faberi (SETFA) [3]) | phytotoxicity to the plant, ABUTH [4] | phytotoxicity to the plant, AMARE [5] | phytotoxicity to the plant, ECHCG [6] | phytotoxicity to the plant, IPOHE [7] | phytotoxicity to the plant, SETFA (Setaria faberi (SETFA) [8]) | phytotoxicity to the plant, ZEAMX (Zea mays (ZEAMX) [9]) | phytotoxicity to the plant, AMARE [10] | phytotoxicity to the plant, ABUTH [11] | phytotoxicity to the plant, ZEAMX (Zea mays (ZEAMX) [12])
1 | Cc1c(Br)c(C2CN(C)C(=O)C2C(=O)Nc2ccc(F)nc2F)nn1C(F)F (stereo not drawn) [Compound 83, 4-[4-bromo-1-(difluoromethyl)-5-methyl-pyrazol-3-yl]-N-(2,6-difluoro-3-pyridyl)-1-methyl-2-oxo-pyrrolidine-3-carboxamide] | 5 | 0 | 5 | 0 | 0 | 4 | 1 | 3 | 4 | 1 | 1 | 1
2 | Cc1cc(C2CN(C)C(=S)C2C(=O)Nc2ccc(F)nc2F)nn1C(F)F (stereo not drawn) [Compound 85, 4-[1-(difluoromethyl)-5-methyl-pyrazol-3-yl]-N-(2,6-difluoro-3-pyridyl)-1-methyl-2-thioxo-pyrrolidine-3-carboxamide] | 4 | 0 | 4 | 0 | 0 | 4 | 1 | 2 | 1 | 1 | 0 | 1
3 | CCc1cc(C2CN(C)C(=S)C2C(=O)Nc2ccc(F)nc2F)nn1C(F)F (stereo not drawn) [Compound 86, 4-[1-(difluoromethyl)-5-ethyl-pyrazol-3-yl]-N-(2,6-difluoro-3-pyridyl)-1-methyl-2-thioxo-pyrrolidine-3-carboxamide] | 5 | 0 | 5 | 1 | 2 | 4 | 1 | 4 | 3 | 1 | 3 | 1
